Measurements published in patent US11053204B2, “Pyrimidinyloxy benzene derivatives as herbicides” (FMC Corporation, priority 2015, dated 2021).

Key:
Assay type in all cases: in vivo
[1] = tested on: Italian ryegrass (Lolium multiflorum); test: Test A preemergence, visual injury rating; conditions: for Ryegrass, Italian plant response rating: 0 to 100 scale (0 no effect, 100 complete control)
Method in brief: (§1)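 Greenhouse pot test, loam/sand soil. Formulation: non-phytotoxic solvent mix plus surfactant. Pre: directed spray onto soil after sowing. Post: plants at 1–2 leaf, 2–10 cm. Rated visually vs untreated controls at ~10 d, 0 (no effect) to 100 (complete control).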

[2] = tested on: barnyardgrass (Echinochloa crus-galli); test: Test A preemergence, visual injury rating; conditions: for Barnyardgrass plant response rating: 0 to 100 scale (0 no effect, 100 complete control)
Method in brief: as §1

[3] = tested on: giant foxtail (Setaria faberii); test: Test A preemergence, visual injury rating; conditions: for Foxtail, Giant plant response rating: 0 to 100 scale (0 no effect, 100 complete control)
Method in brief: as §1

kochia (Kochia scoparia) [4] = test: Test A preemergence, visual injury rating; conditions: for Kochia plant response rating: 0 to 100 scale (0 no effect, 100 complete control)
Method in brief: as §1

[5] = tested on: pigweed (Amaranthus retroflexus); test: Test A preemergence, visual injury rating; conditions: for Pigweed plant response rating: 0 to 100 scale (0 no effect, 100 complete control)
Method in brief: as §1

[6] = tested on: ragweed (common ragweed, Ambrosia elatior); test: Test A preemergence, visual injury rating; conditions: for Ragweed plant response rating: 0 to 100 scale (0 no effect, 100 complete control)
Method in brief: as §1

[7] = tested on: Italian ryegrass (Lolium multiflorum); test: Test A postemergence, visual injury rating; conditions: 0 is no effect, 100 is complete control
Method in brief: as §1

[8] = tested on: barnyardgrass (Echinochloa crus-galli); test: Test A postemergence, visual injury rating; conditions: 0 is no effect, 100 is complete control
Method in brief: as §1

[9] = tested on: blackgrass (Alopecurus myosuroides); test: Test A postemergence, visual injury rating; conditions: 0 is no effect, 100 is complete control
Method in brief: as §1

corn (Zea mays) = test: Test A postemergence, visual injury rating; conditions: 0 is no effect, 100 is complete control
Method in brief: as §1

[10] = tested on: galium (catchweed bedstraw, Galium aparine); test: Test A postemergence, visual injury rating; conditions: 0 is no effect, 100 is complete control
Method in brief: as §1

[11] = tested on: giant foxtail (Setaria faberii); test: Test A postemergence, visual injury rating; conditions: 0 is no effect, 100 is complete control
Method in brief: as §1

kochia (Kochia scoparia) [12] = test: Test A postemergence, visual injury rating; conditions: 0 is no effect, 100 is complete control
Method in brief: as §1

[13] = tested on: pigweed (Amaranthus retroflexus); test: Test A postemergence, visual injury rating; conditions: 0 is no effect, 100 is complete control
Method in brief: as §1

[14] = tested on: ragweed (common ragweed, Ambrosia elatior); test: Test A postemergence, visual injury rating; conditions: 0 is no effect, 100 is complete control
Method in brief: as §1

[15] = tested on: wheat (Triticum aestivum); test: Test A postemergence, visual injury rating; conditions: 0 is no effect, 100 is complete control
Method in brief: as §1

[16] = tested on: barnyardgrass (Echinochloa crus-galli); test: Test B flooded paddy test, plant response rating; conditions: 250 g ai/ha; Flood; scale of 0 to 100 where 0 is no effect and 100 is complete control; 13 to 15 days
Method in brief: (§2)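 Greenhouse pots flooded to 3 cm above soil at time of treatment received compound via the water, which stayed at that level.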

[17] = tested on: ducksalad (Heteranthera limosa); test: Test B flooded paddy test, plant response rating; conditions: 250 g ai/ha; Flood; scale of 0 to 100 where 0 is no effect and 100 is complete control; 13 to 15 days
Method in brief: as §2

rice (Oryza sativa) = test: Test B flooded paddy test, plant response rating; conditions: 250 g ai/ha; Flood; scale of 0 to 100 where 0 is no effect and 100 is complete control; 13 to 15 days
Method in brief: as §2

[18] = tested on: sedge, umbrella (small-flower umbrella sedge, Cyperus difformis); test: Test B flooded paddy test, plant response rating; conditions: 250 g ai/ha; Flood; scale of 0 to 100 where 0 is no effect and 100 is complete control; 13 to 15 days
Method in brief: as §2

[19] = 31 g ai/ha, 0 to 100 scale, 0 no effect, 100 complete control
[20] = 31 g ai/ha, 0 to 100 scale, approximately 10 days

N#Cc1ccc(Oc2ncc(Cl)cn2)c(C(=O)OCCC(F)(F)F)c1 [Compound 64]
0: Ryegrass, Italian plant response rating ([1]; 125 g ai/ha) | Ryegrass, Italian plant response rating ([1]; 500 g ai/ha) | Barnyardgrass plant response rating ([2]; 125 g ai/ha) | Barnyardgrass plant response rating ([2]; 500 g ai/ha) | Foxtail, Giant plant response rating ([3]; 125 g ai/ha) | Foxtail, Giant plant response rating ([3]; 500 g ai/ha) | Kochia plant response rating (kochia (Kochia scoparia) [4]; 125 g ai/ha) | Kochia plant response rating (kochia (Kochia scoparia) [4]; 500 g ai/ha) | Pigweed plant response rating ([5]; 125 g ai/ha) | Pigweed plant response rating ([5]; 500 g ai/ha) | Ragweed plant response rating ([6]; 125 g ai/ha) | Ragweed plant response rating ([6]; 500 g ai/ha) | Ryegrass, Italian plant response rating (0 to 100 scale) ([7]; 125 g ai/ha) | Ryegrass, Italian plant response rating (0 to 100 scale) ([7]; 500 g ai/ha) | Barnyardgrass plant response rating (0 to 100 scale) ([8]; 125 g ai/ha) | Barnyardgrass plant response rating (0 to 100 scale) ([8]; 500 g ai/ha) | Blackgrass plant response rating (0 to 100 scale) ([9]; 125 g ai/ha) | Blackgrass plant response rating (0 to 100 scale) ([9]; 500 g ai/ha) | Corn plant response rating (0 to 100 scale) (corn (Zea mays); 125 g ai/ha) | Corn plant response rating (0 to 100 scale) (corn (Zea mays); 500 g ai/ha) | Galium plant response rating (0 to 100 scale) ([10]; 125 g ai/ha) | Galium plant response rating (0 to 100 scale) ([10]; 500 g ai/ha) | Foxtail, Giant plant response rating (0 to 100 scale) ([11]; 125 g ai/ha) | Foxtail, Giant plant response rating (0 to 100 scale) ([11]; 500 g ai/ha) | Kochia plant response rating (0 to 100 scale) (kochia (Kochia scoparia) [12]; 125 g ai/ha) | Kochia plant response rating (0 to 100 scale) (kochia (Kochia scoparia) [12]; 500 g ai/ha) | Pigweed plant response rating (0 to 100 scale) ([13]; 125 g ai/ha) | Pigweed plant response rating (0 to 100 scale) ([13]; 500 g ai/ha) | Ragweed plant response rating (0 to 100 scale) ([14]; 125 g ai/ha) | Ragweed plant response rating (0 to 100 scale) ([14]; 500 g ai/ha) | Wheat plant response rating (0 to 100 scale) ([15]; 125 g ai/ha) | Wheat plant response rating (0 to 100 scale) ([15]; 500 g ai/ha) | Plant response rating, Barnyardgrass [16] | Plant response rating, Ducksalad [17] | Plant response rating, Rice (rice (Oryza sativa)) | Plant response rating, Sedge, Umbrella [18]

CCCC(=O)c1c(C#N)cccc1Oc1ncc(Cl)cn1 [Compound 67]
0: Plant response rating, Ryegrass, Italian [1, 19] | Ryegrass, Italian plant response rating ([1]; 125 g ai/ha) | Plant response rating, Barnyardgrass [2, 19] | Barnyardgrass plant response rating ([2]; 125 g ai/ha) | Plant response rating, Foxtail, Giant [3, 19] | Foxtail, Giant plant response rating ([3]; 125 g ai/ha) | Plant response rating, Kochia (kochia (Kochia scoparia) [4]; [19]) | Kochia plant response rating (kochia (Kochia scoparia) [4]; 125 g ai/ha) | Plant response rating, Pigweed [5, 19] | Pigweed plant response rating ([5]; 125 g ai/ha) | Plant response rating, Ragweed [6, 19] | Ragweed plant response rating ([6]; 125 g ai/ha) | Ryegrass, Italian plant response rating [7, 20] | Ryegrass, Italian plant response rating (0 to 100 scale) ([7]; 125 g ai/ha) | Barnyardgrass plant response rating [8, 20] | Barnyardgrass plant response rating (0 to 100 scale) ([8]; 125 g ai/ha) | Blackgrass plant response rating [9, 20] | Blackgrass plant response rating (0 to 100 scale) ([9]; 125 g ai/ha) | Corn plant response rating (corn (Zea mays); [20]) | Corn plant response rating (0 to 100 scale) (corn (Zea mays); 125 g ai/ha) | Galium plant response rating [10, 20] | Galium plant response rating (0 to 100 scale) ([10]; 125 g ai/ha) | Foxtail, Giant plant response rating [11, 20] | Foxtail, Giant plant response rating (0 to 100 scale) ([11]; 125 g ai/ha) | Kochia plant response rating (kochia (Kochia scoparia) [12]; [20]) | Kochia plant response rating (0 to 100 scale) (kochia (Kochia scoparia) [12]; 125 g ai/ha) | Pigweed plant response rating [13, 20] | Pigweed plant response rating (0 to 100 scale) ([13]; 125 g ai/ha) | Ragweed plant response rating [14, 20] | Ragweed plant response rating (0 to 100 scale) ([14]; 125 g ai/ha) | Wheat plant response rating [15, 20] | Wheat plant response rating (0 to 100 scale) ([15]; 125 g ai/ha) | Plant response rating, Barnyardgrass [16] | Plant response rating, Ducksalad [17] | Plant response rating, Rice (rice (Oryza sativa)) | Plant response rating, Sedge, Umbrella [18]
